Experimental data as given in patent US8198290B2, “Methoxatin derivatives” (Berry and Associates, Inc., priority 2009, dated 2012).
Values joined by “and” are separate entries in the source; they are usually repeats but may differ in a detail not shown here. Identical values can stand only once.

Biological target: T1, soluble glucose dehydrogenase (GDH) (Acinetobacter calcoaceticus, UniProt P13650)
T1 sequence (P13650 25-478): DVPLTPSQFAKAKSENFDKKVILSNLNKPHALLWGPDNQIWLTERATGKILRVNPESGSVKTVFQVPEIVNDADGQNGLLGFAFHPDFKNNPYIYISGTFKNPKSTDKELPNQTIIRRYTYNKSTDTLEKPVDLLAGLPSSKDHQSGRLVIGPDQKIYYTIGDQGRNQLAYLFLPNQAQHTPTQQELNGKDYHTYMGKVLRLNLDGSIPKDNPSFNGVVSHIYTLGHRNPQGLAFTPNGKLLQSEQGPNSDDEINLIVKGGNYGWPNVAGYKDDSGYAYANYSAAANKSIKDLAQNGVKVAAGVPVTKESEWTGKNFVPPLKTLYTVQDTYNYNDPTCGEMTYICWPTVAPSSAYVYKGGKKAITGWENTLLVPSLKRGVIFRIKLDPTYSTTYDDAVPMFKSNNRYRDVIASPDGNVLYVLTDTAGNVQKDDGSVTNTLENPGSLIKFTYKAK
Assay: GDH assay: coenzyme activity relative to native methoxatin
Format: biochemical
Parameters: concentration or dose not given beside the values
Details: coenzyme activity expressed as a percentage of the methoxatin sample
Protocol: The coenzyme activity of several compounds relative to native methoxatin was determined with a published assay that utilizes soluble glucose dehydrogenase (GDH) from Acinetobactercalcoaceticus. (Misset-Smits et al., Methods in Enzymol., 280, 89-98 (1997)).

Relative Activity in GDH Assay	Compound
40% and 45%	C=CCCCONC(=O)c1cc(C(=O)O)c2c(n1)C(=O)C(=O)c1cc(C(=O)O)[nH]c1-2 [Compound 5, 4,5-Dioxo-7-((pent-4-en-1-yloxy)carbamoyl)-4,5-dihydro-1H-pyrrolo[2,3-f]quinoline-2,9-dicarboxylic acid]
45% and 40%	[N-]=[N+]=NCCOCCOCCOCCONC(=O)c1cc(C(=O)O)c2c(n1)C(=O)C(=O)c1cc(C(=O)O)[nH]c1-2 [Compound 7, 7-(((11-Azido-3,6,9-trioxaundecyl)oxy)carbamoyl)-4,5-dioxo-4,5-dihydro-1H-pyrrolo[2,3-f]quinoline-2,9-dicarboxylic acid]
6%	O=C(/C=C/c1cn([C@H]2C[C@H](O)[C@@H](CO)O2)c(=O)[nH]c1=O)NCCCCCCNC(=O)c1ccc(C(=O)NCCOCCOCCOCCONC(=O)c2cc(C(=O)O)c3c(n2)C(=O)C(=O)c2cc(C(=O)O)[nH]c2-3)c(P(=O)(c2ccccc2)c2ccccc2)c1 [Compound 15, 7-(((1-(2-(diphenylphosphoryl)-4-((6-((E)-3-(1-((2R,4S,5R)-4-hydroxy-5-(hydroxymethyl)tetrahydrofuran-2-yl)-2,4-dioxo-1,2,3,4-tetrahydropyrimidin-5-yl)acrylamido)hexyl)carbamoyl)phenyl)-1-oxo-5,8,11-trioxa-2-azatridecan-13-yl)oxy)carbamoyl)-4,5-dioxo-4,5-dihydro-1H-pyrrolo[2,3-f]quinoline-2,9-dicarboxylic acid]

Compound	Relative Activity in GDH Assay
O=C(O)c1cc(C(=O)O)c2c(n1)C(=O)C(=O)c1cc(C(=O)O)[nH]c1-2 [Methoxatin]	100%
